Legend:
[1] = for surface tension liquid-gas: Ring tensiometer; for mass density: 101 kPa, Liquid
[2] = xn = mol fraction of the nth substance listed; details: x2 = 0; for surface tension liquid-gas: Ring tensiometer; for mass density: 101 kPa, Liquid

CC#N [acetonitrile]
[1]
Details | mass density [kg/m3] | surface tension liquid-gas [mN/m]
278.15 K | 793.3 | 30.5
283.15 K | 788.8 | 30.1
288.15 K | 784.3 | 29.7
293.15 K | 778.3 | 29.3
298.15 K | 776.75 | 28.9
303.15 K | 771.5 | 28.5
308.15 K | 766.3 | 28.1
313.15 K | 761 | 27.7

CCCO [propan-1-ol]
[1]
Details | mass density [kg/m3] | surface tension liquid-gas [mN/m]
278.15 K | 816.3 | 24.9
283.15 K | 812.4 | 24.5
288.15 K | 808.6 | 24.1
293.15 K | 803.61 | 23.7
298.15 K | 799.58 | 23.3
303.15 K | 795.48 | 22.9
308.15 K | 792.8 | 22.5
313.15 K | 787.02 | 22.2

CCCO [propan-1-ol] + CC#N
[2]
Details | mass density [kg/m3] | surface tension liquid-gas [mN/m]
278.15 K | 816.3 | 24.9
283.15 K | 812.4 | 24.5
288.15 K | 808.6 | 24.1
293.15 K | 803.61 | 23.7
298.15 K | 799.58 | 23.3
303.15 K | 795.48 | 22.9
308.15 K | 792.8 | 22.5
313.15 K | 787.02 | 22.2

Reference: the NIST ThermoML archive (doi:10.1007/s10765-009-0581-7)
